The source of these data is patent publication US20020090352A1, “Compositions and methods for use in modulating immune system function” (priority 2000, published 2002).

“Also recorded” adds a separate entry of the source.

Data set [1] deals with immature LC (Langerhans cells). The data set is described as follows: Activation of immature LC: HLA-DR and CD86 expression by flow cytometry. It counts as cell-based, human. Also on record: class II or CD86 upregulation on immature LC: dose or concentration left out as unconfirmed. The note with it: for activation of immature LC (class II / CD86, DRhi-CD86hi) in the presence of TNFα: TNFα 1-10 ng/ml. The protocol:
Immature LC were cultured with retinol or vehicle and/or TNFα for 40 h. Cells were washed and incubated with HLA-DR-FITC and CD86-PE or isotype controls for 15 min at 4° C. 10^4 events were then analyzed with a FACScalibur (Becton Dickinson) using CellQuest software (Becton Dickinson). % are given for DRhi CD86hi cells gated as indicated. Data are representative of three experiments on different donors.
FIG. 3A: Day 6 immature LC were cultured for 40 h with TNFα and/or retinoids or vehicle as indicated. Cells were washed and stained with HLA-DR-FITC and CD86-PE or isotype controls for 15 min at 4° C. 10^4 events were then analyzed with a FACScalibur (Becton Dickinson) using CellQuest software (Becton Dickinson). Data are given for DRhi/CD86 hi cells gated as indicated, and are representative of 10 experiments on different donors.
Percentages of DRhi/CD86 hi cells are represented and results are expressed as the mean±SD of at last three experiments on different donors.
Flow Cytometry Analysis. 1×10^5 cells were incubated in 96-well plates (Becton Dickinson Labware, Franklin Lakes, N.J.) for 15 min at 4 ° C. in PBS, 2% human AB serum, and 0.01 M NaN3, with FITC-conjugated anti-DR (Immunotech, Marseille, France) and PE-conjugated CD86 (Pharmingen, San Diego, Calif.) at the appropriate concentration, or with control isotype-matched irrelevant mAbs at the same concentration. After washing, 10^4 events were analyzed with a FACScalibur (Becton Dickinson Immunocytometry Systems, Mountain View, Calif.) using CellQuest software.
For orientation: Flow cytometry measures light scatter and fluorescence of single cells or particles in a stream.

The target in data set [2] is T1, RARγ AF2 (Homo sapiens, UniProt P13631). Further: key: '+' = agonist; '(+)' = weak agonist; '−' = antagonist; '0' = absence of agonist and antagonist activities.
T1 construct: expressed in transfected cells
T1 sequence (P13631 185-419 limits assumed): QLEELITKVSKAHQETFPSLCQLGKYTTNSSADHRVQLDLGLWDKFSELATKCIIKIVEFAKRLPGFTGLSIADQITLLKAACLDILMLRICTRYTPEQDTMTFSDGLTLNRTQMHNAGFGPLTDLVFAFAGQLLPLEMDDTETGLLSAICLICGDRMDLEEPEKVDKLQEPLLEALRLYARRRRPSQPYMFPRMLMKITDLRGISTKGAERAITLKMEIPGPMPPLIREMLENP
The note with it: retinoid activity, reporter cells; cited from earlier work.

The target in data set [3] is T2, RARα AF2 (Homo sapiens, UniProt P10276). Further: key: '+' = agonist; '(+)' = weak agonist; '−' = antagonist; '0' = absence of agonist and antagonist activities.
T2 construct: expressed in transfected cells
T2 sequence (P10276 183-417 limits assumed): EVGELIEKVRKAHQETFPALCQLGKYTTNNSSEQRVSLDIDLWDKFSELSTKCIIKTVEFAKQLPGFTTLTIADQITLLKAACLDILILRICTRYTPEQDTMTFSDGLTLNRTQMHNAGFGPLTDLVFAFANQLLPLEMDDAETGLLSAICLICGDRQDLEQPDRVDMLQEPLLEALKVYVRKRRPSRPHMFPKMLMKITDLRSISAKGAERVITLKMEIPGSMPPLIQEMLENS
The note with it: retinoid activity, reporter cells; cited from earlier work.

Data set [4] concerns the target T3, RARβ AF2 (Homo sapiens, UniProt P10826). Further: key: '+' = agonist; '(+)' = weak agonist; '−' = antagonist; '0' = absence of agonist and antagonist activities.
T3 construct: expressed in transfected cells
T3 sequence (P10826 183-417 limits assumed): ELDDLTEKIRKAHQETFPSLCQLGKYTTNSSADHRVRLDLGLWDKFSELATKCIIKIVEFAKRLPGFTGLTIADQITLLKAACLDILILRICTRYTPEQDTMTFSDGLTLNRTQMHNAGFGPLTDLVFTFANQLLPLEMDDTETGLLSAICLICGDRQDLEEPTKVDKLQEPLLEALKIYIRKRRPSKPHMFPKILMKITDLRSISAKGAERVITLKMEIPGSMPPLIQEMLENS
The note with it: retinoid activity, reporter cells; cited from earlier work.

The test system of data set [5] is RXR AF2. The settings on record: retinoid activity, reporter cells; cited from earlier work.
The subject of data set [6] is immature LC (Langerhans cells). The data set is described as follows: Apoptosis of immature LC, flow cytometry of PI stained nuclei (sub 2N particles) / annexin V. It counts as cell-based, human.
[7] abbreviates: 1 nM, two days in culture, mean ± SD.
Where [8] appears, read: 10 nM, two days in culture, mean ± SD.
The mark [9] stands for this setting: 100 nM, two days in culture, mean ± SD.
Setting [10] is: 1 μM, two days in culture, mean ± SD.

For `CC1(C)CC=C(c2ccccc2)c2cc(/C=C/c3ccc(C(=O)O)cc3)ccc21` [Compound VII], in data set [1] (result in words), the “activation of immature LC (class II / CD86, DRhi-CD86hi) in the presence of TNFα” value is given as “weak effect”. The “RARγ AF2” value in data set [2] is recorded as “−”. The “RARα AF2” value in data set [3] is given as “−”. Besides, in data set [4], the “RARβ AF2” value is on record as “+”. Also, the “RXR AF2” value in data set [5] was 0. The “percentage of apoptotic (<2N) particles” value is “≦5%” in data set [6] (setting [7]); “≦5%” in data set [6] (setting [8]); “≦5%” in data set [6] (100 nM SR11237 + 1 nM ligand); 5% in data set [6] (100 nM SR11237 + 10 nM ligand); 20 ± 6% in data set [6] (100 nM SR11237 + 100 nM ligand); 19 ± 7% in data set [6] (100 nM SR11237 + 1 μM ligand). Besides, the “percentage of apoptotic (<2N) particles” value in data set [6] (setting [9]) is recorded as “≦5%”; in data set [6] (setting [10]), 10 ± 6%. For the same molecule, the “synergy with the pan-RXR agonist SR11237 to induce LC death” value in data set [6] (result in words) was “synergized with the pan-RXR agonist to induce LC death”.

Turning to `CC1(C)CC=C(c2ccccc2)c2cc(/C=C/c3ccc(C(=O)O)cc3Cl)ccc21` [Compound III, (E)-3-Chloro-4-[2-(5,6-dihydro-5,5-dimethyl-8-phenyl-2-naphthalenyl)-ethenyl] benzoic acid], in data set [1] (result in words), the “activation of immature LC (class II / CD86, DRhi-CD86hi) in the presence of TNFα” value is on record as “weak effect; also recorded: upregulate”. The “RARγ AF2” value in data set [2] is recorded as 0. Also, the “RARα AF2” value in data set [3] is 0. The “RARβ AF2” value in data set [4] is recorded as “+”. In addition, in data set [5], the “RXR AF2” value is 0. Further, the “percentage of apoptotic (<2N) particles” value is reported as “≦5%” in data set [6] (setting [7]); “≦5%” in data set [6] (setting [8]); “≦5%” in data set [6] (100 nM SR11237 + 1 nM ligand); “≦5%” in data set [6] (100 nM SR11237 + 10 nM ligand); 16 ± 3% in data set [6] (100 nM SR11237 + 100 nM ligand); 30 ± 2% in data set [6] (100 nM SR11237 + 1 μM ligand). The “percentage of apoptotic (<2N) particles” value in data set [6] (setting [9]) and in data set [6] (setting [10]) was “≦5%” each time. Also, the “synergy with the pan-RXR agonist SR11237 to induce LC death” value in data set [6] (result in words) is “synergized with the pan-RXR agonist to induce LC death”.

In the case of `Cc1ccc(S(=O)(=O)N[C@@H](Cc2ccccc2)C(=O)CCl)cc1` [TPCK], the “inhibition of the increase of class II and CD86 on LCs” value in data set [1] (LCs treated with tRA and TNFα, TPCK 10 nM) was found to be 50%. Also, the “toxicity on LCs” value in data set [1] (TPCK 10 nM, LCs treated with tRA and TNFα) is recorded as “without any evidence of toxicity”.

In the case of `CC1(C)CC=C(C#Cc2ccccc2)c2cc(/C=C/c3ccc(C(=O)O)cc3)ccc21` [Compound VIII], the “effect on Compound II / SR11237 synergy for TNFα-induced LC activation” value in data set [1] (result in words) is reported as “inhibited”. Also, the “effect on TNFα-SR11237 synergism for LC activation” value in data set [1] (result in words) is “only a weak effect”. In data set [1] (result in words), the “effect on synergy between TNFα and retinol, tRA or Compound I on LC activation” value is given as “inhibited”. Also, in data set [1] (with TNFα, result in words), the “effect on 9cRA-induced LC activation” value is on record as “only partially blocked”. Also, the “RARγ AF2” value in data set [2] is reported as “−”. In addition, in data set [3], the “RARα AF2” value was “−”. For the same molecule, the “RARβ AF2” value in data set [4] was “−”. For the same molecule, the “RXR AF2” value in data set [5] is on record as 0. For the same molecule, the “percentage of apoptotic (<2N) particles” value in data set [6] (100 nM SR11237 + 1 nM ligand), in data set [6] (100 nM SR11237 + 10 nM ligand), in data set [6] (100 nM SR11237 + 100 nM ligand) and in data set [6] (100 nM SR11237 + 1 μM ligand) was “≦5%” throughout. The “inhibition of retinoid-induced apoptosis / cell death of immature LC” value in data set [6] (result in words) is “inhibited retinol-induced cell death; also recorded: strongly inhibited”.

Regarding `CC1=C(/C=C/C(C)=C\C=C\C(C)=C\C(=O)O)C(C)(C)CCC1` [Compound 9cRA, 9-cis retinoic acid, reference compound], in data set [1] (result in words), the “activation of immature LC (class II / CD86, DRhi-CD86hi) in the presence of TNFα” value was “upregulate”. Moreover, in data set [1] (in the absence or at low concentrations of TNFα), the “class II or CD86 upregulation on immature LC” value is “did not significantly induce”. Besides, the “RXR AF2” value in data set [5] is “+”. Moreover, the “percentage of apoptotic (<2N) particles” value in data set [6] (setting [7]) was “≦5%”; in data set [6] (setting [8]) it was “≦5%”; in data set [6] (setting [9]), 8 ± 3%; in data set [6] (setting [10]), 30 ± 9%. Besides, the “induction of apoptosis / death of immature LC by the substance on its own” value in data set [6] (no TNFα, result in words) is “induced a similar dose- and time-dependent increase in death”.

On to “IL-1β: Human recombinant IL-1β from R&D Systems”, for which the “inhibition of retinoid-induced apoptosis / cell death of immature LC” value in data set [6] (result in words) was “inhibited the apoptotic effect of retinoids”.

With TNFα, the “inhibition of the pro-apoptotic effects of retinol” value in data set [6] (1 ng/ml of TNFα) is listed as above 50%. Also, the “percentage of apoptotic (<2N) particles” value in data set [6] (agent + Cmpd. I 1 μM, Cmpd. II 1 μM, Cmpd. VIII 1 μM, Z-Vad 50 μM, TNFα 10 ng/ml, CD40L coculture) is reported as 11 ± 1%; in data set [6] (agent + Compound I 100 nM + SR11237 100 nM, Cmpd. II 1 μM, Cmpd. VIII 1 μM, Z-Vad 50 μM, TNFα 10 ng/ml, CD40L coculture), 14 ± 2%; in data set [6] (agent + Rol 1 μM, Cmpd. VIII 1 μM, TNFα 10 ng/ml), 4.5 ± 1%; in data set [6] (agent + tRA 1 μM, Cmpd. II 1 μM, Cmpd. VIII 1 μM, Z-Vad 50 μM, TNFα 10 ng/ml, CD40L coculture) it was 8 ± 7%; in data set [6] (agent alone (column 0), Cmpd. II 1 μM, Cmpd. VIII 1 μM, Z-Vad 50 μM, TNFα 10 ng/ml, CD40L coculture) it was “≦5%”. The “inhibition of retinoid-induced apoptosis / cell death of immature LC” value in data set [6] (result in words) is listed as “inhibited the pro-apoptotic effects”.
